From PubChem BioAssay AID2305 (GlaxoSmithKline (GSK), 2010)

Tested on: P. falciparum 3D7 growth, pLDH absorbance
Experiment: blood-stage malaria parasite growth potency – strain 3D7, dose response (AID 2305)

| Compound | IC50 [nM] |
| --- | --- |
| CCOC(=O)c1ccc(NCc2ccccn2)cc1 | 630 |
| COc1cccc(NC(=O)N2CCOC(CCN3CCC4(CCc5ccccc54)CC3)(c3ccc(Cl)c(Cl)c3)C2)c1 (stereo unspecified) | 1010 |
| O=C(NCc1cccc(Cl)c1)c1ccc(CNC2CCN(Cc3ccccc3)CC2)cc1 | 880 |
| CCN(CC)CCN(Cc1ccc(-c2ccc(C(F)(F)F)cc2)cc1)C(=O)Cn1cc(Cc2cnn(C)c2)c(=O)n2nc(-c3ccccc3)cc12 | 730 |
| COc1cc2nccc(Nc3ccc(OCc4ccccc4)cc3)c2cc1OC | 200 |
| Cc1cccc2[nH]c(-c3cccc(-c4cccc(NC(=O)Nc5ccccc5)c4)c3)nc12 | 140 |
| COCCCn1c(=N)c(C(=O)NCCc2ccc(OC)cc2)cc2c(=O)n3cccc(C)c3nc21 | 1030 |
| N#Cc1ccc2c(c1)CCN(CCC1CCC(NC(=O)/C=C/c3ccc4ccccc4c3)CC1)CC2 (stereo unspecified) | 720 |
| Cc1ccnc2nc(C(=O)Nc3cc(C(F)(F)F)ccc3N3CCCCC3)nn12 | 60 |
| O=C(c1ccc(-c2ccc(Cl)cc2)o1)N1CCc2cc3nccc(N4CCN5CCC[C@H]5C4)c3cc21 | 170 |
| CC(C)CNCc1cccc(-c2ccc(CNC3CCN(Cc4ccccc4)CC3)cc2)c1 | 270 |
| COc1ccc2nc(C)cc(Nc3ccc(Oc4ccc(Br)c5ccccc45)c(Cl)c3)c2c1 | 280 |
| O=c1cc(NCCCNCc2scc(I)c2I)[nH]c2ccccc12 | 590 |
| CC(C)CCNC(=O)[C@@H]1[C@H]2C(=O)N(C3CCCCC3)C(=O)[C@H]2[C@H]2C=C[C@@H]3C(c4ccc(C(C)(C)C)cc4)=NO[C@@H]3N21 | 790 |
| O=C(CN(c1cccc(C(F)(F)F)c1)S(=O)(=O)c1ccc(Cl)cc1)NCCC(c1ccccc1)c1ccccc1 | 740 |
| c1cc(CNc2ncc(-c3ccsc3)c(-c3nccs3)n2)ccn1 | 360 |
| COc1cccc(-c2nn(C)c3sc(C(=O)NCCN4CCN(c5ccccc5F)CC4)cc23)c1 | 950 |
| O=C(Nc1cc(Cl)ccc1O)c1ccc(Oc2ccc(C(=O)Nc3cc(Cl)ccc3O)cc2)cc1 | 920 |
| CNC(=O)c1cnc(Nc2ccc(N3CCN(C)CC3)c(C)c2)nc1NC | 870 |
| CC(C)(CNCc1ccc(C(F)(F)F)cc1)c1nc(-c2ccc(Cl)c(O)c2)c(-c2ccncc2)[nH]1 | 730 |
| COc1ccc2ncc(F)c([C@@H](O)CN3CCC(NCc4ccc5c(c4)NCCS5)CC3)c2n1 | 500 |
| Cc1cc(NC(=O)Nc2ccc3ccn(C)c3c2)c2ccccc2n1 | 210 |
| CC(C)(C)c1ccc(-c2nc3c(ccc4nc(N)nc(N)c43)[nH]2)cc1 | 160 |
| C[C@@H]1CN(c2cnn(Cc3ccc(NC(=O)Nc4ccc(-c5ccccc5)cc4)cc3)c(=O)c2Cl)C[C@H](C)N1 | 370 |

| Compound | IC50 [nM] |
| --- | --- |
| CCNc1cc(C(=O)N[C@@H](Cc2ccccc2)[C@H](O)CNC2(C(C)C)CCC2)cc(N2CCCCS2(=O)=O)c1 | 680 |
| C=CCN1C(=O)C(=Cc2cc(Br)ccc2O)SC1=Nc1ccccc1 | 900 |
| FC(F)(F)c1ccc2c(NCCCNc3ccnc4cc(C(F)(F)F)ccc34)ccnc2c1 | 30 |
| Oc1ccc(CCNCCCCCCNCCc2ccc(-c3ccccc3)cc2)cc1O | 600 |
| Nc1nnc(-c2ccc(Cl)c(Br)c2)c(N)n1 | 1040 |
| CCCCCCCN(CCCCCCC)CCCC(=O)Nc1ccnc2ccc(OC)cc12 | 150 |
| O=C(NCC1Cc2cc(Oc3ccccc3)ccc2O1)c1ccc([N+](=O)[O-])o1 (stereo unspecified) | 920 |
| N#Cc1ccc(CN2CCCN(Cc3cccc(NC(=O)c4ccc(-c5ccccc5)cc4)c3)CC2)cc1 | 1020 |
| COC1CCC(C(=O)Nc2ccc(-c3cccc(-c4nc5c(C)cccc5[nH]4)c3)cc2)CC1 (stereo unspecified) | 580 |
| O=C(/C=C/c1ccc(Cl)c(Cl)c1)NCCCCCN1CCC(NC(=O)Nc2ccc(F)c(F)c2)CC1 | 840 |
| O=C(N[C@@H](CC1CCCCC1)C(=O)NCCN1CCCC1)c1ccc(O)c(-c2ccc(Cl)c(Cl)c2)c1 | 310 |
| CCCC(C)NC[C@@H](O)[C@H](Cc1ccccc1)NC(=O)c1cc(NCC)cc(N2CCCCS2(=O)=O)c1 (stereo partly specified) | 160 |
| COc1ccc(NC(=O)c2csc(-c3cc(NC(=O)c4ccnc(N5CCCC5)c4)ccc3C)c2)cc1N1CCN(C)CC1 | 660 |
| Cc1nc(/N=C(\N)NC(=O)NC2CCCCC2)nc2ccccc12 | 790 |
| CC(Cc1ccc(NC(=O)CCNCc2ccccc2)cc1)NCCc1cccc(Cl)c1 (stereo unspecified) | 150 |
| COc1ccccc1N1CCN(Cc2cc(C(C)C)c(C)cc2O)CC1 | 570 |
| Cc1ccc(CCOCCCCCNCC(O)c2cc(Cl)c(N)c(Cl)c2)cc1 (stereo unspecified) | 950 |
| O=C(NCC(c1ccc(C(F)(F)F)cc1)N1CCCC1)c1cc(-c2ccncc2)c(-c2cccc(O)c2)o1 (stereo unspecified) | 1060 |
| Nc1ccc2nc(C=Cc3ccccc3)[nH]c2c1 | 750 |
| NC(=O)NC(=O)C=Cc1ccco1 | 150 |
| CC[C@H]1CN2CC[C@@H]1C[C@H]2[C@H](O)c1ccnc2ccc(OC)cc12 | 230 |
| O=C(/C=C/c1cccc(Cl)c1)Nc1ccc2nc(CN3CCCC3)ccc2c1 | 260 |
| COc1ccc(CN2CCC(N3CCc4cc(NC(=O)c5cc(C)on5)ccc43)C2)cc1Cl (stereo unspecified) | 940 |
| CC(=O)Nc1nc(C(=O)Nc2cccc(-c3ccc(-c4nc5c(C)cccc5[nH]4)cc3)c2)cs1 | 230 |

| Compound | IC50 [nM] |
| --- | --- |
| Cc1[nH]c(C)c(-c2ccc(OCCSc3ccncc3)cc2)c(=O)c1Br | 390 |
| COc1ccc(CN2CCCC(Nc3ccc(F)c(F)c3)C2)c(O)c1 (stereo unspecified) | 1090 |
| CCOC(=O)Nc1cc(-c2csc(N=C(N)N)n2)cc([N+](=O)[O-])c1 | 820 |
| Fc1cccc(COc2ccc(Nc3ncnc4sc(C#CCNC5CCC5)cc34)cc2Cl)c1 | 870 |
| Cc1cc(N[C@@H](CC(C)C)C(=O)Nc2ccccc2)nc(NCC2CCCCC2)n1 | 870 |
| CCCCCCCc1cc(O)c2c(c1)OC(C)(C)c1ccncc1-2 | 1150 |
| COc1cc(F)c2nccc([C@@H](O)CN3CCC(NCc4cc5c(cc4F)OCCO5)CC3)c2c1 | 680 |
| COc1ccc(NC(=O)Nc2ccc(-c3ccc(-c4nc5c(C)cccc5[nH]4)s3)cc2)cc1 | 180 |
| C[C@@H]1CN(c2cnn(Cc3ccc(NC(=O)Nc4ccc(F)cc4[N+](=O)[O-])cc3)c(=O)c2Cl)C[C@H](C)N1 | 810 |
| CCc1cn(CC(=O)N(CCOc2ccc(-c3ccc(C(F)(F)F)cc3)cc2)CCN(CC)CC)c(SCc2ccc(F)cc2)nc1=O | 780 |
| COc1ccc(CNCc2ccccc2)cc1-c1ccc(S(=O)(=O)NCCN2CCCC2)cc1 | 820 |
| CC(C)C[C@H](NC(=O)c1ccc(OCCN2CCOCC2)cc1)C(=O)N[C@H](/C=N/N1CC(=O)NC1=O)CCc1ccccc1 | 280 |
| CN(C)CCCNc1ccnc2cc(Cl)ccc12 | 280 |
| O=C(/C=C/c1ccc(Cl)c(Cl)c1)NCCCCCN1CCC(NC(=O)c2cc(Cl)ccc2F)CC1 | 1160 |
| COc1ccc2ncc(F)c(CCN3C[C@H](CNCc4cc(F)c5c(c4)NC(=O)CO5)[C@H](O)C3)c2n1 | 670 |
| Cc1cc(CN2CCN(CCOC(c3ccccc3)c3ccccc3)CC2)ccc1O | 930 |
| CS(=O)(=O)c1ccc(-c2cncc(Cl)n2)cc1 | 770 |
| Cc1cc(-c2ccc(O)c(CNC3CCCCC3)c2)cnc1N | 200 |
| COc1ccccc1C1CN(CCNC(=O)c2ncc(C)[nH]2)Cc2ccccc2O1 (stereo unspecified) | 800 |
| CS(=O)(=O)Nc1ccc2[nH]cc(C3CCN(CC(O)C4CCN(C(=O)/C=C/c5ccc(Cl)c(Cl)c5)CC4)CC3)c2c1 (stereo unspecified) | 1760 |
| CNC(=O)NC1=NC(C)(C)N(OCc2ccc(Cl)c(Cl)c2)C(NC(=O)NC)=N1 | 600 |
| CC(Cc1ccc(NC(=O)COc2ccc(CC(C)NCCc3cccc(Cl)c3)cc2)cc1)NCCc1cccc(Cl)c1 (stereo unspecified) | 80 |
| Oc1ccc(Cl)c2c1C(c1ccccc1)=NCC2 | 540 |
| COc1ccc(C(=O)NCC(C)(C)c2nc(-c3ccc(Cl)c(O)c3)c(-c3ccncc3)[nH]2)cc1OCCN(C(C)C)C(C)C | 640 |

| Compound | IC50 [nM] |
| --- | --- |
| COc1ccc(CNCc2cccc(-c3csc(-c4nc5ccccc5[nH]4)c3)c2)cc1 | 650 |
| CC(c1cccc(S(=O)(=O)NCc2cccc(C(F)(F)F)c2)c1)N1CCC(N2CCCCC2)CC1 (stereo unspecified) | 690 |
| COC(=O)c1cccc(CNCc2cccc(-c3ccc(-c4nc5c(C)cccc5[nH]4)cc3)c2)c1 | 320 |
| COc1cccc(O)c1CNCC(O)c1cccc(C(F)(F)F)c1 (stereo unspecified) | 950 |
| Cc1cc(C)n(Cc2ccc(C(=O)NCC3CCCCC3)cc2)n1 | 960 |
| NC(N)=Nc1nc(-c2ccc(NC(=O)Nc3cccc(-c4csc(N=C(N)N)n4)c3)cc2)cs1 | 1010 |
| COc1ccc2ccccc2c1CON1C(N)=NC(N)=NC1(C)C | 30 |
| CC(C)CC1c2[nH]c3ccccc3c(=O)c2CN1C(=O)OC(C)(C)C (stereo unspecified) | 220 |
| CCN(CCCN1CCCCC1)c1cc(C)nc(Nc2cc(Cl)ccc2C)n1 | 630 |
| COc1ccc(Cn2c(Nc3cccc(C(F)(F)F)c3)nc3ccc(C(=O)NCCN4CCCC4)cc32)cc1Cl | 750 |
| COCCN1CCC(N(Cc2ccc(-c3ccc(OC(F)(F)F)cc3)cc2)C(=O)Cn2c(CCc3cccc(F)c3F)cc(=O)c3ccccc32)CC1 | 1210 |
| CN(C)CCOc1ccc2[nH]c(-c3cccc(OCc4ccccc4)c3)nc2c1C#N | 260 |
| N#Cc1cc([N+](=O)[O-])ccc1-n1nc(C(N)=O)n(Cc2cccc(F)c2)c1=S | 720 |
| Cc1cc(NC(=O)c2coc3cc(F)c(N4C[C@@H](C)N(C)[C@@H](C)C4)cc23)ccc1-n1ccnc1 | 840 |
| COc1ccc(-c2ccc(NC(=O)c3ccc(C#N)cc3)cc2)cc1CNC(C)C | 530 |
| CCCNCc1ccc(-c2ccc(CN(Cc3ccc4c(c3)OCO4)C(=O)[C@H]3CCCO3)cc2)nc1 | 810 |
| CS(=O)(=O)c1ccc2nc(-c3cc(-c4cccc(F)c4)cnc3N)[nH]c2c1 | 1090 |
| CC(=O)Nc1ccc(C(=O)Nc2cccc(-c3ccc(-c4nc5ccc(F)cc5[nH]4)cc3)c2)cn1 | 170 |
| Cc1cccc2[nH]c(-c3ccc(-c4cccc(NC(=O)C(C)CN(C)C)c4)cc3)nc12 (stereo unspecified) | 650 |
| Cc1[nH]c(C)c(-c2ccc(Oc3ccc(Cl)cc3)cc2)c(=O)c1C | 390 |
| Cc1cc(NN=Cc2cccc([N+](=O)[O-])c2)c2ccccc2n1 | 730 |
| COc1ccc2nccc([C@@H](O)CN3CCC(NCc4nc5c([N+](=O)[O-])cccc5[nH]4)CC3)c2c1 | 710 |
| CC(C)n1c(CC2CCN(CC3CCN(C(=O)/C=C/c4ccc(Cl)c(Cl)c4)CC3)CC2)nc2ccccc21 | 610 |
| CCN(CC)CCNC(=O)c1ccc(N=Cc2c(O)[nH]c3ccc(S(=O)(=O)Cc4c(Cl)cccc4Cl)cc23)cc1 | 840 |
